Results from patent US10683297B2 (Sunshine Lake Pharma Co., Ltd., priority 2017, dated 2020).
Marks after values point to notes of the source that are not given here.

Tests used:
[1] = Pharmacokinetics after intravenous and oral administration in rats; assay type: in vivo
Procedure, shortened: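 Rats dosed i.v. (about 0.5, 0.6, 1 or 2 mg/kg) or p.o. (5 or 10 mg/kg) as solution, suspension or capsule. Plasma sampled over 24 h and quantified by LC/MS/MS in MRM mode with ESI.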

[2] = Compound stability in human liver microsomes; assay type: in vitro ADME; conditions: for half-life at 5 μM: human liver microsomes 0.5 mg protein/mL, compound 5 μM, NADPH 1.0 mM, pH 7.4, 37° C., read-out: Human T1/2; for CLint scaled at 5 μM: liver microsomes, pH 7.4, in vivo CLint extrapolated from human liver microsome incubation
Procedure, shortened: (§1)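 Compounds (5 μM) incubated at 37 °C with human or rat liver microsomes (0.5 mg protein/mL) and 1.0 mM NADPH in 100 mM phosphate buffer pH 7.4, 0.05% DMSO, in duplicate. Sampled 0–60 min, quantified by LC/MS/MS as % of time zero; CLint extrapolated.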

[3] = Compound stability in rat liver microsomes; assay type: in vitro ADME; conditions: for CLint scaled at 5 μM: liver microsomes, pH 7.4, in vivo CLint extrapolated from rat liver microsome incubation; for half-life at 5 μM: rat liver microsomes 0.5 mg protein/mL, compound 5 μM, NADPH 1.0 mM, pH 7.4, 37° C., read-out: Rat T1/2
Procedure, shortened: as §1

[4] = test system: PMA-induced increase in mouse ear thickness and weight; experiment: Topical PMA-induced acute atopic dermatitis in ICR mice; assay type: in vivo; conditions: ICR female mice, 0.3 mg/ear/bid topical; for thickness (right ear) / Weight (right ear): 30 minutes before and 15 minutes after PMA, Mean±Sem; for thickness (right ear) / thickness Inhibition ratio: 6 hours after PMA
Experimental: ICR female mice (20-30 g), five mice or nine mice/group, were used in this study. Five micrograms of PMA (phorbol 12-myristate 13-acetate) in 20 μL of ethanol was applied topically to the anterior and posterior surface of the right ear of each mouse. Twenty microliters of vehicle (ethanol/acetone ([…])=1/1); 0.3 mg of EX. 68 ([…]); EX. 76, EX. 50, EX. 92 or EX. 65 (0.3 mg […]) were administrated to the same areas 30 minutes before and 15 minutes after PMA application. The thickness of right ears of each mouse was measured 6 hours after PMA stimulation. Ear weight of right ears of each mouse was weighed with analytical balance Each value represents the Mean±Sem. Statistical significance compared with model groups (*P<0.05; **P<0.01). Tables 5-1, 5-2 and 5-3 listed the inhibitory effect on PMA-induced increase in mouse ear thickness and weight. The compounds of the present invention have a good inhibitory effect on PMA-induced increase in mouse ear thickness and weight.

JAK2 (h) = target: T1, JAK2 (h) (Homo sapiens, UniProt O60674); experiment: JAK2 (h) kinase assay; assay type: biochemical; conditions: [γ-33P-ATP] 10 μM or KM values; 40 minutes at room temperature
T1 construct: purchased Millipore UK Ltd (assays performed there as a service)
Experimental: Kinase assays can be performed by measurement of incorporation of γ-^33P ATP into immobilized myelin basic protein (MBP). High binding white 384 well plates (Greiner) are coated with MBP (Sigma # M-1891) by incubation of 60 μL well of 20 μg/mL MBP in Tris-buffered saline (TBS; 50 mM Tris pH 8.0, 138 mM NaCl, 2.7 mM KCl) for 24 h at 4° C. Plates are washed 3× with 100 μL TBS. Kinase reactions are carried out in a total volume of 34 μL in kinase buffer (according to the need to make, for example, 5 mM Hepes pH 7.6, 15 mM NaCl, 0.01% bovine gamma globulin (Sigma #1-5506), 10 mM MgCl2, 1 mM DTT, 0.02% TritonX-100). Compound dilutions are performed in DMSO and added to assay wells to a final DMSO concentration of 1%. Each data point is measured in duplicate, and at least two duplicate assays are performed for each individual compound determination. Enzyme is added to final concentrations of 10 nM or 20 nM, for example. A mixture of unlabeled ATP and γ-^33P ATP is added to start the reaction (2×10^6 cpm of γ-^33P ATP per well (3000 Ci/mmole) and 10 μM unlabeled ATP, typically. The reactions are carried out for 1 hour at room temperature with shaking. Plates are washed 7× with TBS, followed by the addition of 50 μL well scintillation fluid (Wallac). Plates are read using a Wallac Trilux counter. This is only one format of such assays; various other formats are possible, as known to one skilled in the art.
(§2) The above assay procedure can be used to determine the IC50 for inhibition and/or the inhibition constant, Ki. […] The IC50 value is estimated by preparing a 10 point curve using a ½ log dilution series (for example, a typical curve may be prepared using the following compound concentrations: 3 μM, 1 μM, 0.3 μM, 0.1 μM, 0.03 μM, 0.01 μM, 0.003 μM, 0.001 μM, 0.0003 μM and 0 μM).
JAK2 (h) is incubated with 8 mM MOPS pH 7.0, 0.2 mM EDTA, 100 μM […], 10 mM MgAcetate and [γ-^33P-ATP] […] The reaction is initiated by the addition of the MgATP mix. After incubation for 40 minutes at room temperature, the reaction is stopped by the addition of 3% phosphoric acid solution. 10 μL of the reaction is then spotted onto a P30 filtermat and washed three times for 5 minutes in 75 mM phosphoric acid and once in methanol prior to drying and scintillation counting.
(§3) The kinase assays described herein were performed at Millipore UK Ltd, Dundee Technology Park, Dundee DD2 1SW, UK.

Aurora-B (h) = target: T2, Aurora-B (h) (Homo sapiens, UniProt Q96GD4); experiment: Aurora-B (h) kinase assay; assay type: biochemical; conditions: [γ-33P-ATP] 10 μM or KM values; 40 minutes at room temperature
T2 construct: purchased Millipore UK Ltd (assays performed there as a service)
Experimental: as §2
Aurora-B (h) is incubated with 8 mM MOPS pH 7.0, 0.2 mM EDTA, 30 μM […], 10 mM MgAcetate and [γ-^33PATP] […] The reaction is initiated by the addition of the MgATP mix. After incubation for 40 minutes at room temperature, the reaction is stopped by the addition of a 3% phosphoric acid solution. 10 μL of the reaction is then spotted onto a P30 filtermat and washed three times for 5 minutes in 75 mM phosphoric acid and once in methanol prior to drying and scintillation counting.
as §3

JAK1 (h) = target: T3, JAK1 (h) (Homo sapiens, UniProt P23458); experiment: JAK1 (h) kinase assay; assay type: biochemical; conditions: [γ-33P-ATP] 10 μM or KM values; 40 minutes at room temperature
T3 construct: purchased Millipore UK Ltd (assays performed there as a service)
Procedure, shortened: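 Radiometric filter-binding assay: human JAK1 incubated 40 min at room temperature in 20 mM Tris/HCl pH 7.5, 0.2 mM EDTA, 500 μM peptide substrate, 10 mM Mg acetate, with [γ-33P]ATP at 10 μM or KM. Reaction stopped with phosphoric acid; P30 filtermat scintillation counting.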

[5] = rat, plasma, iv dosing, dose 1 mg/kg (Ex. 9: 0.6, Ex. 18: 0.5, Ex. 50: 0.96 mg/kg)

T3 sequence (P23458 whole entry): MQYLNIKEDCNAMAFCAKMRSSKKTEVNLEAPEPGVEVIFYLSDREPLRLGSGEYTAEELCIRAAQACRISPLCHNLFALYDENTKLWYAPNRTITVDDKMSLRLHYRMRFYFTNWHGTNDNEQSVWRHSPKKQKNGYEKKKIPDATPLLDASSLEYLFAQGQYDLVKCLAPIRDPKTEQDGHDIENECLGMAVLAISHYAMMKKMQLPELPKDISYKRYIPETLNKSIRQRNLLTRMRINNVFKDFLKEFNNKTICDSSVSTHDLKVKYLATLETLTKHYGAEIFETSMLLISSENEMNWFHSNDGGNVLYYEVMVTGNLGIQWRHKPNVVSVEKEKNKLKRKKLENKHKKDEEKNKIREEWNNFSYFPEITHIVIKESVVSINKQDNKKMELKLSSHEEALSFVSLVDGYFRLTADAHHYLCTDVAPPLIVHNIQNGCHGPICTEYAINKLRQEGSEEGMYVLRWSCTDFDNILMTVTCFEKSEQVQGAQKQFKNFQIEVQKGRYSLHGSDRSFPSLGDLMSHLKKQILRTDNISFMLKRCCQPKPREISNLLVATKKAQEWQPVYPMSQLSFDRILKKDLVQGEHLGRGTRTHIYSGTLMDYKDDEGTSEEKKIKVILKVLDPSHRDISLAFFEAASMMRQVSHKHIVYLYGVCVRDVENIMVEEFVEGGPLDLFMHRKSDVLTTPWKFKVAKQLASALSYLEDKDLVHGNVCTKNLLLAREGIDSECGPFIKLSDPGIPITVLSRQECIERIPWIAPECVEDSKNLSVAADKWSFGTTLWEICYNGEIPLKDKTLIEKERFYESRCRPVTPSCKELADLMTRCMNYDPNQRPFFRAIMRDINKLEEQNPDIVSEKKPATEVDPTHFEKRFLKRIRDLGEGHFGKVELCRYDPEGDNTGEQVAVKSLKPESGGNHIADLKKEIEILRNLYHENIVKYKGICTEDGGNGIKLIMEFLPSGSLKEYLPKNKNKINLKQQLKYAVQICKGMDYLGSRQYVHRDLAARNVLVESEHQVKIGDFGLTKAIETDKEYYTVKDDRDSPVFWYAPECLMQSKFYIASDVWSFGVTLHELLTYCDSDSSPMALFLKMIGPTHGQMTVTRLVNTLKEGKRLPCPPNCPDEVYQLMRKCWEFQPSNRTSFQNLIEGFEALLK
T1 sequence (O60674 whole entry): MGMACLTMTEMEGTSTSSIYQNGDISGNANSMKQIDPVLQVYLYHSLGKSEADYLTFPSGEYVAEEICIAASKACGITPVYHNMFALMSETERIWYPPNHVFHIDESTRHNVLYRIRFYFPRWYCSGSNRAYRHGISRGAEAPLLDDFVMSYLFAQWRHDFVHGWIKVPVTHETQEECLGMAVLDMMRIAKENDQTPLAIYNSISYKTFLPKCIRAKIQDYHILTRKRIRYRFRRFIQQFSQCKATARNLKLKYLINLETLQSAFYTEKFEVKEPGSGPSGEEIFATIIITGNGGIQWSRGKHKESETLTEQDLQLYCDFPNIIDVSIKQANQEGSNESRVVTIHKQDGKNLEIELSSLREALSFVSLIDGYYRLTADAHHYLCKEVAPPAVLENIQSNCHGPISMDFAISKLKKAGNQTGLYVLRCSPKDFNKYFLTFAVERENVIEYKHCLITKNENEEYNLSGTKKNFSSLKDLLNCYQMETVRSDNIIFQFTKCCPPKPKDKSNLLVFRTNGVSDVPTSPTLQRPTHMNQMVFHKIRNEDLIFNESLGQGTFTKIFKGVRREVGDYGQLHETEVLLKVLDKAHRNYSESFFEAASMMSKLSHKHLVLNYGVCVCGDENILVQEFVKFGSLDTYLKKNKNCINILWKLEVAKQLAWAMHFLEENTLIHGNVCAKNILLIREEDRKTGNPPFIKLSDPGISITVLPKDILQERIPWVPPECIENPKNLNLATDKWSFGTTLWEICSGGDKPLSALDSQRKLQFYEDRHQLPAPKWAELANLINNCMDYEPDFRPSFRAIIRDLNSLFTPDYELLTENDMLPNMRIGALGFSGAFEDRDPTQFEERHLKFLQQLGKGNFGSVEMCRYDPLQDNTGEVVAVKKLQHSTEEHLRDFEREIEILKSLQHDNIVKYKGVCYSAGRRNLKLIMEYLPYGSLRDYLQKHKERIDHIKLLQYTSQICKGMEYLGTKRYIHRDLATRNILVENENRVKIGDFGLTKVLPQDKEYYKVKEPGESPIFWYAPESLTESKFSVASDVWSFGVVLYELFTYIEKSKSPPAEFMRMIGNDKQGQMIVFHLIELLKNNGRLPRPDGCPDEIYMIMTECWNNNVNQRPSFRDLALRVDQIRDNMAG
T2 sequence (Q96GD4 whole entry): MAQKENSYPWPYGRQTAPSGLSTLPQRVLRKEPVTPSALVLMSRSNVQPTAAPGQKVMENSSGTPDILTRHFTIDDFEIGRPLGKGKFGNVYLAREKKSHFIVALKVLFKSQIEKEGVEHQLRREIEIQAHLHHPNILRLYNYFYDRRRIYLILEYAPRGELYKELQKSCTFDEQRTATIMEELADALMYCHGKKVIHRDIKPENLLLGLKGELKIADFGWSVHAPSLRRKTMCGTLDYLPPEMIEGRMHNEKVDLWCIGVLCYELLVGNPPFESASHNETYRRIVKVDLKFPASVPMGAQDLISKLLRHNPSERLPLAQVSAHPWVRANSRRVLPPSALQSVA

Compound	Clearance (CL) after iv dosing ([1]; iv dosing, dose 1 mg/kg (Ex. 9: 0.6, Ex. 18: 0.5, Ex. 50: 0.96 mg/kg)) [mL/min/kg]	AUC(0-t) [1, 5] [ng·h/mL]	half-life [1, 5] [min]	Vd ([1]; rat, plasma, iv dosing, dose 1 mg/kg (Ex. 9: 0.6, Ex. 18: 0.5, Ex. 50: 0.96 mg/kg), read-out: Vss) [L/kg]	bioavailability ([1]; rat, plasma, oral (generally 5 or 10 mg/kg) versus iv dosing, read-out: F (oral bioavailability)) [%]	half-life at 5 μM [2] [min]	CLint scaled at 5 μM [2] [mL/min/kg]	CLint scaled at 5 μM [3] [mL/min/kg]	half-life at 5 μM [3] [min]	Weight Inhibition ratio [4] [%]	thickness (right ear) [4]	Weight (right ear) [4]	thickness Inhibition ratio [4] [%]	IC50 (JAK2 (h)) [nM]	IC50 (Aurora-B (h)) [nM]	IC50 (JAK1 (h)) [nM]
Cn1cnc2cc(Nc3ncc(Cl)c(NC4CCN(c5ccc(C#N)nn5)CC4)n3)ccc21 [Example 50, 6-(4-((5-chloro-2-((1-methyl-1H-benzo[d]imidazol-5-yl)amino)pyrimidin-4-yl)amino)piperidin-1-yl)pyridazine-3-carbonitrile]	14.2	1210	63	1.17	51.8	55.6	31.3	58.2	29.9	39.95	0.321 ± 0.022** mm	25.222 ± 1.998** mg	46.89	–	–	–
CC(C)(O)Cn1nnc2cc(Nc3ncc(Cl)c(NC4CCN(c5ccc(C#N)nn5)CC4)n3)ccc21 [Example 62, 6-(4-((5-chloro-2-((1-(2-hydroxy-2-methylpropyl)-1H-benzo[d][1,2,3]triazol-5-yl)amino)pyrimidin-4-yl)amino)piperidin-1-yl)pyridazine-3-carbonitrile]	–	–	–	–	–	192	9.1	75.3	33	–	–	–	–	2	48	0.4
CCCn1nnc2cc(Nc3ncc(Cl)c(NC4CCN(c5ccc(C#N)nn5)CC4)n3)ccc21 [Example 65, 6-(4-((5-chloro-2-((1-propyl-1H-benzo[d][1,2,3]triazol-5-yl)amino)pyrimidin-4-yl)amino)piperidin-1-yl)pyridazine-3-carbonitrile]	–	–	–	–	–	8	218	473	5.3	46.22	0.374 ± 0.022** mm	26.333 ± 1.958* mg	38.95	–	–	0.9
CC(C)(O)Cc1cn2ccc(Nc3ncc(Cl)c(NC4CCN(c5ccc(C#N)cn5)CC4)n3)cc2n1 [Example 76, 6-(4-((5-chloro-2-((2-(2-hydroxy-2-methylpropyl)imidazo[1,2-a]pyridin-7-yl)amino)pyrimidin-4-yl)amino)piperidin-1-yl)nicotinonitrile]	–	–	–	–	–	15.1	115	1440	1.7	68.40	0.252 ± 0.018** mm	20.000 ± 1.323** mg	77.86	–	–	0.5
CN(C)C(=O)c1nc2cc(Nc3ncc(Cl)c(NC4CCN(c5ccc(C#N)nn5)CC4)n3)ccn2n1 [Example 85, 7-((5-chloro-4-((1-(6-cyanopyridazin-3-yl)piperidin-4-yl)amino)pyrimidin-2-yl)amino)-N,N-dimethyl-[1,2,4]triazolo[1,5-a]pyridine-2-carboxamide]	–	–	–	–	–	32.5	53.5	106	23.5	–	–	–	–	17	163	0.3
N#Cc1ccc(N2CCC(Nc3nc(Nc4cnc5c(c4)ncn5CCO)ncc3Cl)CC2)nc1 [Example 92, 6-(4-((5-chloro-2-((3-(2-hydroxyethyl)-3H-imidazo[4,5-b]pyridin-6-yl)amino)pyrimidin-4-yl)amino)piperidin-1-yl)nicotinonitrile]	–	–	–	–	–	–	–	–	–	72.30	0.319 ± 0.027** mm	21.444 ± 1.952** mg	60.03	–	–	–
